Test results reported in ChEMBL document CHEMBL1131788, “Isolation and structure of SCH 351633: a novel hepatitis C virus (HCV) NS3 protease inhibitor from the fungus Penicillium griseofulvum” (Bioorg Med Chem Lett, 1999).

Molecular target: NS3 (Hepatitis C virus, UniProt A3EZJ3)
Test: In vitro antiviral activity against hepatitis C virus (HCV) NS3 protease using scintillation proximity assay
Design: species or system Hepacivirus hominis

NS3, sequence (A3EZJ3 whole entry): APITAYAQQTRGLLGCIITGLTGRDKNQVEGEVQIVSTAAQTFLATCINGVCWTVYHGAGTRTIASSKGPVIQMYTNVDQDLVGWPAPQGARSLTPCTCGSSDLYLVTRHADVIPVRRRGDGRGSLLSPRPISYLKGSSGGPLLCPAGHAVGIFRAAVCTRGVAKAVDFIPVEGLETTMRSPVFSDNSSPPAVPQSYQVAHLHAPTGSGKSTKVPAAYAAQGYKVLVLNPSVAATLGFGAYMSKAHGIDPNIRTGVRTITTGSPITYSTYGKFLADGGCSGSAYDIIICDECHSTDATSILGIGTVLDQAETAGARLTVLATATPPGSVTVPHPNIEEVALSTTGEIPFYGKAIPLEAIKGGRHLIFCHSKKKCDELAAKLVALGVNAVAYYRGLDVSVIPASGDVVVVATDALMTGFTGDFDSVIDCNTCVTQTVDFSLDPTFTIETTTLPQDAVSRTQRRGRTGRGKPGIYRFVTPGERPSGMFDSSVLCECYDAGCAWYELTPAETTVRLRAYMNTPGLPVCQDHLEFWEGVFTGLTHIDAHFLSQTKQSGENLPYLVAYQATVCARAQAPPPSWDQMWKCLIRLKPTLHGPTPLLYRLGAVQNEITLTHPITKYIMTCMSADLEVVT

SMILES	IC50 [µM]
CC(=O)OC1OCC=C2OC(=O)C=C21 (stereo not drawn)	36.7
O=C1C=C2C(=CCOC2O)O1 (stereo not drawn) [PATULIN]	24.7
O=C1C=C2C(=CCOC2OC(=O)c2ccc(Br)cc2)O1 (stereo not drawn)	37.4
